The values below come from PubChem BioAssay (NCI).

Molecules are shown by their SMILES.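 Each compound was tested at five concentrations against cells in 96-well plates for 48 hours. GI50: concentration for 50% inhibition of growth. Definition used: TGI = concentration required for complete inhibition of growth.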

Among the test systems are MDA-MB-231 breast; CCRF-CEM leukemia; SF-268 CNS; SF-295 CNS; SK-MEL-28 melanoma; UACC-62 melanoma; PC-3 prostate; MOLT-4 leukemia; ACHN renal; NCI-H226 lung.
Common to all, as to experiment: NCI-60 cell line screen, 48 h

On to `O=C(Nc1ccncc1)C(=O)c1cn(S(=O)(=O)c2ccccc2F)c2ccccc12`, for which the GI50 in the assay on MDA-MB-231 breast was 3.97 µM; in the assay with CCRF-CEM leukemia, 4.35 µM; in the assay with SF-268 CNS, 2.32 µM; with SF-295 CNS, 2.11 µM; in the assay with SK-MEL-28 melanoma, 3.59 µM; with UACC-62 melanoma, 0.708 µM. Moreover, the GI50 is 2.35 µM in the assay with PC-3 prostate, 3.45 µM in the assay on MOLT-4 leukemia, 5.21 µM in the assay with ACHN renal and 6.93 µM in the assay on NCI-H226 lung. The TGI was 64.9 µM with MDA-MB-231 breast; above 100 µM in the assay on CCRF-CEM leukemia; above 79.3 µM in the assay with SF-268 CNS; 10.2 µM with SF-295 CNS; 49.1 µM in the assay with SK-MEL-28 melanoma; above 36.4 µM in the assay with UACC-62 melanoma. The TGI is above 68.5 µM in the assay on PC-3 prostate, above 45.7 µM in the assay on MOLT-4 leukemia, above 70.9 µM in the assay on ACHN renal and above 68.6 µM with NCI-H226 lung.

On to `COc1ccc(/C=C(\C#N)c2cc(OC)c3c(c2)OCO3)cc1`, for which the GI50 is 0.0553 µM with MDA-MB-231 breast; 0.0226 µM in the assay on CCRF-CEM leukemia; below 0.01 µM in the assay on SF-268 CNS; below 0.01 µM with SF-295 CNS; 0.0117 µM in the assay on SK-MEL-28 melanoma; below 0.01 µM with UACC-62 melanoma. Moreover, the GI50 in the assay with PC-3 prostate is 0.0101 µM; in the assay on MOLT-4 leukemia, 0.0402 µM; in the assay with ACHN renal, 0.0449 µM; in the assay with NCI-H226 lung, 0.0249 µM. Further, the TGI with MDA-MB-231 breast is 46.3 µM; in the assay with CCRF-CEM leukemia, above 100 µM; in the assay on SF-268 CNS, 52.6 µM; with SF-295 CNS, 21 µM; with SK-MEL-28 melanoma it was 44.8 µM; with UACC-62 melanoma, above 100 µM. The TGI in the assay on PC-3 prostate is 38.1 µM; in the assay with MOLT-4 leukemia, above 100 µM; with ACHN renal it was 67.7 µM; in the assay on NCI-H226 lung it was 2.56 µM.

Regarding `Cc1nn2c(/C=C3/C(=O)Nc4ccc(Cl)cc43)c(-c3ccccc3)nc2s1`, the GI50 in the assay with MDA-MB-231 breast is 2.29 µM; in the assay with CCRF-CEM leukemia, 4.06 µM; with SF-268 CNS it was 2.06 µM; with SF-295 CNS it was 2.02 µM; in the assay on SK-MEL-28 melanoma it was 2.65 µM; in the assay on UACC-62 melanoma it was 3.8 µM. Further, the GI50 is 1.79 µM in the assay on PC-3 prostate, 6.96 µM in the assay with MOLT-4 leukemia, 2.96 µM with ACHN renal and 1.51 µM in the assay with NCI-H226 lung. For the same molecule, the TGI in the assay with MDA-MB-231 breast was determined as 8.41 µM; in the assay on CCRF-CEM leukemia, 23.7 µM; in the assay on SF-268 CNS, 5.19 µM; with SF-295 CNS, 5.76 µM; in the assay with SK-MEL-28 melanoma, 7.06 µM; with UACC-62 melanoma it was 18.5 µM. For the same molecule, the TGI was found to be 5.37 µM in the assay on PC-3 prostate, 37.1 µM with MOLT-4 leukemia, 14.4 µM with ACHN renal and 4.6 µM in the assay on NCI-H226 lung.

Regarding `Cn1c2ccccc2c2nnc(N/N=C/c3ccccn3)nc21`, the GI50 in the assay on MDA-MB-231 breast was 0.478 µM; in the assay on CCRF-CEM leukemia, 0.301 µM; with SF-268 CNS it was 0.343 µM; in the assay with SF-295 CNS, 0.37 µM; in the assay with SK-MEL-28 melanoma, 0.494 µM; in the assay on UACC-62 melanoma it was 0.3 µM. Also, the GI50 in the assay on PC-3 prostate is 1.44 µM; in the assay with MOLT-4 leukemia, 0.271 µM; in the assay on ACHN renal, 0.35 µM; with NCI-H226 lung, 0.337 µM. In addition, the TGI is 38.1 µM in the assay on MDA-MB-231 breast; above 33.1 µM with CCRF-CEM leukemia; above 23.9 µM in the assay on SF-295 CNS; 26.6 µM in the assay with SK-MEL-28 melanoma; 1.03 µM with UACC-62 melanoma; above 100 µM in the assay on PC-3 prostate. Also, the TGI was above 21.4 µM in the assay on ACHN renal and 5.36 µM in the assay on NCI-H226 lung.

In the case of `C=C1C(=O)O[C@@H]2C[C@@H](C)[C@@H]3[C@@H](OC4OC(COC(C)=O)C(O)C(O)C4O)CC(=O)[C@@]3(C)C[C@H]12` (stereo partly drawn), the TGI with MDA-MB-231 breast came out at 8.92 µM; with CCRF-CEM leukemia it was 16.1 µM; with SF-268 CNS, 44.7 µM; in the assay on SF-295 CNS it was 31.3 µM; with SK-MEL-28 melanoma it was 6.27 µM; in the assay on UACC-62 melanoma it was 2.98 µM. In addition, the TGI turned out to be 23.7 µM in the assay with PC-3 prostate, 7.4 µM with MOLT-4 leukemia, 0.987 µM in the assay on ACHN renal and 26.1 µM with NCI-H226 lung.

On to `CCOc1cc2ncc(C#N)c(Nc3ccc(F)c(Cl)c3)c2cc1NC(=O)/C=C/CN(C)C`, for which the GI50 in the assay on MDA-MB-231 breast was 0.882 µM; in the assay on CCRF-CEM leukemia it was 1.13 µM; in the assay with SF-268 CNS, 0.265 µM; in the assay on SF-295 CNS, 2.25 µM; in the assay with SK-MEL-28 melanoma it was 1.08 µM; with UACC-62 melanoma, 0.449 µM. The GI50 in the assay on PC-3 prostate was 1.19 µM; with MOLT-4 leukemia it was 0.716 µM; in the assay with ACHN renal it was 0.0232 µM; in the assay with NCI-H226 lung, 0.584 µM. In addition, the TGI with MDA-MB-231 breast was 5.07 µM; in the assay with CCRF-CEM leukemia, above 7.16 µM; in the assay with SF-268 CNS it was above 6.99 µM; in the assay on SF-295 CNS, above 10 µM; with SK-MEL-28 melanoma, above 4.73 µM; in the assay with UACC-62 melanoma it was above 5.09 µM. For the same molecule, the TGI with PC-3 prostate was above 9 µM; in the assay with MOLT-4 leukemia it was above 4.91 µM; with ACHN renal, 1.8 µM; with NCI-H226 lung it was above 5.01 µM.

On to `CO/N=C1/NC(=O)/C(=C/c2ccc3ncccc3c2)S1`, for which the GI50 with MDA-MB-231 breast was above 25 µM; with CCRF-CEM leukemia, 10.9 µM; in the assay on SF-268 CNS, above 25 µM; in the assay on SF-295 CNS, 19.9 µM; in the assay with SK-MEL-28 melanoma, 19.5 µM; in the assay with UACC-62 melanoma, 8.06 µM. The GI50 in the assay on PC-3 prostate is 11.7 µM; in the assay on MOLT-4 leukemia, 16.1 µM; with ACHN renal it was 10.6 µM; in the assay on NCI-H226 lung, 6.5 µM. The TGI in the assay with MDA-MB-231 breast, in the assay on CCRF-CEM leukemia, in the assay on SF-268 CNS, with SF-295 CNS, in the assay on SK-MEL-28 melanoma and in the assay with UACC-62 melanoma was above 25 µM throughout. The TGI with PC-3 prostate, in the assay on MOLT-4 leukemia, in the assay on ACHN renal and with NCI-H226 lung was above 25 µM each time.
